Data on six molecules can be found in patent US7566713B2, “Immuno inhibitory heterocyclic compounds” (Medigene Limited, priority 2004, dated 2009).

Bounds are passed on as bounds.

The experiment deals with T1, CD80-CD28 interaction (Homo sapiens, UniProt P33681).
T1 sequence (P33681 35-242 limits assumed): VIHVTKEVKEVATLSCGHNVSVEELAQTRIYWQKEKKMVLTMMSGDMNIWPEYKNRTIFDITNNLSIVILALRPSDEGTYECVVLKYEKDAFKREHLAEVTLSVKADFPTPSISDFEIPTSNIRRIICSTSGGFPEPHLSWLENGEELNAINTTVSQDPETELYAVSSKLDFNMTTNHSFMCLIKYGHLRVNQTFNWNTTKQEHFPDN
As to the kind of experiment: cell free Homogenous Time Resolved Fluorescence (TRFret) assay, inhibition of the CD80-CD28 interaction. The class given is binding. The settings on record: HTRF assay; concentration series 100 μM-1.7 nM; 4 hours at room temperature. As for the experimental part:
The examples described above were tested in a cell free Homogenous Time Resolved Fluorescence (TRFret) assay to determine their activity as inhibitors of the CD80-CD28 interaction.
In the assay, europium and allophycocyanin (APC) are associated with CD28 and CD80 indirectly (through antibody linkers) to form a complex, which brings the europium and APC into close proximity to generate a signal. The complex comprises the following six proteins: fluorescent label 1, linker antibody 1, CD28 fusion protein, CD80 fusion protein, linker antibody 2, and fluorescent label 2. The table below describes these reagents in greater detail.
On formation of the complex, europium and APC are brought into proximity and a signal is generated.
Non-specific interaction was measured by substituting a mouse Fab fragment (C215) for the CD80 mouse Fab fragment fusion protein (1.9 μg/ml). The assay was carried out in black 384 well plates in a final volume of 30 μl. Assay buffer: 50 mM Tris-HCl, 150 mM NaCl pH7.8, containing 0.1% BSA (w/v) added just prior to use.
Compounds were added to the above reagents in a concentration series ranging between 100 μM-1.7 nM. The reaction was incubated for 4 hours at room temperature. Dual measurements were made using a Wallac Victor 1420 Multilabel Counter. First measurement: excitation 340 nm, emission 665 nm, delay 50 μs, window time 200 μs. second measurement: excitation 340 nm, emission 615 nm, delay 50 μs, window time 200 μs. Counts were automatically corrected for fluorescence crossover, quenching and background.
For orientation: In TR-FRET formats the signal depends on donor and acceptor labels being close together.
`O=C(O)c1ccc(-n2[nH]c3c4c(nnc3c2=O)CCCC4)cc1` [Example 1]: the EC50 (as a rule, the concentration needed to bring the measured effect to its halfway point) is above 10000 nM. The result for `O=C(NCC(F)F)c1ccc(-n2[nH]c3c4c(nnc3c2=O)CCCC4)cc1` [Example 3, N-(2,2-Difluoro-ethyl)-4-(3-oxo-1 ,3,6,7,8,9-hexahydro-pyrazolo[4,3-c]cinnolin-2-yl)-benzamide] reads 790 nM. In the case of `CN1C(C)(C)CC(NC(=O)c2ccc(-n3[nH]c4c5c(nnc4c3=O)CCCC5)cc2)CC1(C)C` [Example 6, 4-(3-Oxo-1,3,6,7,8,9-hexahydro-pyrazolo[4,3-c]cinnolin-2-yl)-N-(1,2,2,6,6-pentamethyl-piperidin-4-yl)-benzamide] it was 93 nM.

For `O=C(NCCCNC1CCCCC1)c1ccc(-n2[nH]c3c4c(nnc3c2=O)CCCC4)cc1` [Example 4, N-(3-Cyclohexylamino-propyl)-4-(3-oxo-1 ,3,6,7,8,9-hexahydro-pyrazolo[4,3-c]cinnolin-2-yl)-benzamide], the EC50 came to 101 nM. In the case of `CN(C)CCCNC(=O)c1ccc(-n2[nH]c3c4c(nnc3c2=O)CCCC4)cc1` [Example 2, N-(3-Dimethylamino-propyl)-4-(3-oxo-1,3,6,7,8,9-hexahydro-pyrazolo[4,3-c]cinnolin-2-yl)-benzamide] it was 63 nM; in that of `O=C(NCCCCN1CCCC1)c1ccc(-n2[nH]c3c4c(nnc3c2=O)CCCC4)cc1` [Example 5, 4-(3-Oxo-1,3,6,7,8,9-hexahydro-pyrazolo[4,3-c]cinnolin-2-yl)-N-(4-pyrrolidin-1-yl-butyl)-benzamide], 60 nM.
